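A five-concentration, 48-hour dose response in 96-well plates underlies each endpoint, interpolated linearly between surrounding concentrations. At the TGI there is no net growth.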
Legend:
Assay in all cases: NCI tumour cell line growth inhibition, 48 h
M14 melanoma = test system: M14 melanoma
SF-539 CNS = test system: SF-539 CNS
A498 renal = test system: A498 renal
SNB-75 CNS = test system: SNB-75 CNS
SW-620 colon = test system: SW-620 colon
IGROV1 ovarian = test system: IGROV1 ovarian
SR leukemia = test system: SR leukemia
OVCAR-8 ovarian = test system: OVCAR-8 ovarian
UACC-257 melanoma = test system: UACC-257 melanoma
HCT-15 colon = test system: HCT-15 colon
CCRF-CEM leukemia = test system: CCRF-CEM leukemia
NCI-H23 lung = test system: NCI-H23 lung
A549 NSCLC = test system: A549 NSCLC

Row | Compound | TGI (M14 melanoma) [µM] | TGI (SF-539 CNS) [µM] | TGI (A498 renal) [µM] | TGI (SNB-75 CNS) [µM] | TGI (SW-620 colon) [µM] | TGI (IGROV1 ovarian) [µM] | TGI (SR leukemia) [µM] | TGI (OVCAR-8 ovarian) [µM] | TGI (UACC-257 melanoma) [µM] | TGI (HCT-15 colon) [µM] | TGI (CCRF-CEM leukemia) [µM] | TGI (NCI-H23 lung) [µM] | TGI (A549 NSCLC) [µM]
1 | O=C1CSC2(CC(/C=C/c3cccc([N+](=O)[O-])c3)=NN2c2cccc(S(=O)(=O)O)c2)N1c1nc2ccccc2s1 (centres undefined) | 92.6 | > 100 | 52.5 | 40.7 | 76.4 | 36.8 | 48.3 | 30.7 | > 100 | 44.5 | 48.3 | 43.4 | 69.2
2 | O=[N+]([O-])c1ccc(C(=S)Nc2ccccc2)o1 | 14 | 4.58 | 32.2 | 30.4 | 3.82 | 17.8 | 10 | 10.6 | 8.82 | 7.07 | 11.4 | 12.4 | 22.4
3 | Nc1ccc2c(c1)nc1n2C(c2c(F)cccc2F)SC1 (centres undefined) | > 100 | > 100 | > 100 | > 100 | > 100 | > 100 | > 100 | > 100 | > 100 | > 100 | > 100 | > 100 | > 100
4 | CCOC(=O)c1c(C)n(-c2ccc(Cl)cc2)c2c1cc(O)c1[nH]c3c(c12)CCCC3 | > 100 | > 100 | > 100 | > 100 | > 100 | > 100 | 43.3 | > 100 | > 100 | > 100 | > 100 | > 100 | > 100
5 | O=c1[nH]nc(Cc2ccccc2)n1C1CCCC1 | > 100 | > 100 | > 100 | > 100 | > 100 | > 100 | > 100 | > 100 | > 100 | > 100 | > 100 | > 100 | > 100
6 | CCOC(=O)C(=CNc1ccc(NC2=NCC(C)S2)cc1)C(=O)OCC (centres undefined) | > 90.7 | > 100 | > 100 | > 74.1 | > 100 | > 100 | > 69.8 | > 100 | > 100 | > 100 | 1.84 | > 100 | > 100
7 | COC(=O)[C@]1(NC(=O)c2ccccc2)C[C@H]1C=O | > 100 | > 100 | > 100 | > 100 | > 100 | > 100 | 53.9 | > 100 | > 100 | > 100 | 51.5 | > 100 | > 100
8 | CC(=O)C1=CN=C2C(=O)N(c3ccccc3)N(C)C12C (centres undefined) | > 100 | > 100 | > 100 | > 100 | > 100 | > 100 | > 100 | > 100 | > 100 | > 100 | > 100 | > 100 | > 100
